Active and inactive are the calls of the source. The rule behind the calls is not given here.
Columns and labels:
GES1 = assay: Antiproliferative activity against human GES1 cells assessed as reduction in cell viability incubated for 72 hrs by MTT assay; format: functional, cell-based; settings: GES1, 72 h
SW480 = assay: Antiproliferative activity against human SW480 cells assessed as reduction in cell viability incubated for 72 hrs by MTT assay; format: functional, cell-based; settings: SW480, 72 h
HGC-27 = assay: Antiproliferative activity against human HGC-27 cells assessed as reduction in cell viability incubated for 72 hrs by MTT assay; format: functional, cell-based; settings: HGC-27, 72 h
RKO [1] = assay: Antiproliferative activity against human RKO cells assessed as reduction in cell viability incubated for 72 hrs by MTT assay; format: functional, cell-based
LoVo = assay: Antiproliferative activity against human LoVo cells assessed as reduction in cell viability incubated for 72 hrs by MTT assay; format: functional, cell-based
SGC-7901 = assay: Antiproliferative activity against human SGC-7901 cells assessed as reduction in cell viability incubated for 72 hrs by MTT assay; format: functional, cell-based; settings: SGC-7901, 72 h
MGC-803 [2] = assay: Antiproliferative activity against human MGC-803 cells assessed as reduction in cell viability incubated for 72 hrs by MTT assay; format: functional, cell-based; settings: MGC-803, 72 h
MGC-803 [3] = assay: Induction of morphological changes in human MGC-803 cells at 0.2 uM incubated for 24 hrs by Giemsa staining based micrscopic analysis; format: functional, cell-based
MGC-803 [4] = assay: Induction of apoptosis in human MGC-803 cells assessed as late apoptotic cells at 0.2 uM incubated for 24 hrs by propidium iodide and Annexin V/FITC staining based flow cytometry assay (reference value: 4.10%); format: functional
RKO [5] = assay: Antiproliferative activity against human RKO cells assessed as reduction in cell viability at 90 nM incubated for 24 hrs by BrdU staining based fluorescence microscopic analysis; format: functional
RKO [6] = assay: Induction of morphological changes in human RKO cells at 0.2 uM incubated for 24 hrs by Giemsa staining based micrscopic analysis; format: functional, cell-based
MGC-803 [7] = assay: Induction of apoptosis in human MGC-803 cells assessed as early apoptotic cells at 0.2 uM incubated for 24 hrs by propidium iodide and Annexin V/FITC staining based flow cytometry assay (reference value: 1.85%); format: functional
RKO [8] = assay: Induction of cell cycle arrest in human RKO cells assessed as accumulation of cells at G2/M phase at 0.2 uM incubated for 24 hrs by propidium iodide staining based flow cytometry analysis; format: functional
MGC-803 [9] = assay: Antiproliferative activity against human MGC-803 cells assessed as reduction in cell viability at 90 nM incubated for 24 hrs by BrdU staining based fluorescence microscopic analysis; format: functional
RKO [10] = assay: Induction of apoptosis in human RKO cells assessed as late apoptotic cells at 0.2 uM incubated for 24 hrs by propidium iodide and Annexin V/FITC staining based flow cytometry assay (reference value: 0.50%); format: functional
RKO [11] = assay: Induction of apoptosis in human RKO cells assessed as early apoptotic cells at 0.2 uM incubated for 24 hrs by propidium iodide and Annexin V/FITC staining based flow cytometry assay (reference value: 0.16%); format: functional
[12] = target: T1, DNA topoisomerase 1 (Homo sapiens) (UniProt P11387); assay: Inhibition of topoisomerase 1 (unknown origin) at 200 uM using PBR322 DNA as substrate incubated for 30 mins by agarose gel electrophoresis
T1 sequence (whole entry): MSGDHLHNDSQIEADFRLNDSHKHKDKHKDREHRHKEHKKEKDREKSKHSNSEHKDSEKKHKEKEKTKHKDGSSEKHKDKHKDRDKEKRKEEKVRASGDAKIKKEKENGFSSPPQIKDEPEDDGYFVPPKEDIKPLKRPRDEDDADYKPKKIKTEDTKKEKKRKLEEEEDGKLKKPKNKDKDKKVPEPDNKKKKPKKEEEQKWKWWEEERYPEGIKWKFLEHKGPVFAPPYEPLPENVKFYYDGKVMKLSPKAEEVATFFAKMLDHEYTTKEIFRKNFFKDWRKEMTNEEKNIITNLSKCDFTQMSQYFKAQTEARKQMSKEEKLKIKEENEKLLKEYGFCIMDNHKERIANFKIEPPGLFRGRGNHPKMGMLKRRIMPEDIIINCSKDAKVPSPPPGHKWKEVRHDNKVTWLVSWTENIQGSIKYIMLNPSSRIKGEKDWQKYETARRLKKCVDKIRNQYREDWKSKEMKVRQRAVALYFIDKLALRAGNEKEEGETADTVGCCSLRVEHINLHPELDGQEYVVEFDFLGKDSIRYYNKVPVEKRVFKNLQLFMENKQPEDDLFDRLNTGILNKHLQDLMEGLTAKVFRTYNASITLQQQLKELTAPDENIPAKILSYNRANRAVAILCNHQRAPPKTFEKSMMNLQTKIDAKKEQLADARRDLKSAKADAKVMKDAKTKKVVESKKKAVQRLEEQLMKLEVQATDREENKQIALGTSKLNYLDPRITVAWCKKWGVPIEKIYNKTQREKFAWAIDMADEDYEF

SMILES	IC50 (GES1) [nM]	IC50 (SW480) [nM]	IC50 (HGC-27) [nM]	IC50 (RKO [1]) [nM]	IC50 (LoVo) [nM]	IC50 (SGC-7901) [nM]	IC50 (MGC-803 [2]) [nM]	Activity (MGC-803 [3])	Activity (MGC-803 [4]) [%]	Activity (RKO [5])	Activity (RKO [6])	Activity (MGC-803 [7]) [%]	Activity (RKO [8]) [%]	Activity (MGC-803 [9])	Activity (RKO [10]) [%]	Activity (RKO [11]) [%]	inhibition [12]
C/C=C/C(=O)N1c2ccccc2C(=O)N2CCc3c([nH]c4ccccc34)C21 (stereo not drawn)	13600	6990	4370	10200	> 30000	9590	10300	–	–	–	–	–	–	–	–	–	–
COc1ccc(CN2c3ccccc3C(=O)N3CCc4c([nH]c5ccccc45)C32)cc1 (stereo not drawn)	8530	> 30000	17800	5510	19700	5960	4490	–	–	–	–	–	–	–	–	–	–
CCCCCN1c2ccccc2C(=O)N2CCc3c([nH]c4ccccc34)C21 (stereo not drawn)	2820	4410	7740	1870	> 30000	1220	750	–	–	–	–	–	–	–	–	–	–
O=C1c2ccccc2N(Cc2ccccc2)C2c3[nH]c4ccccc4c3CCN12 (stereo not drawn)	15900	13300	10600	5960	> 30000	11600	9340	–	–	–	–	–	–	–	–	–	–
COc1ccc(CCN2c3ccccc3C(=O)N3CCc4c([nH]c5ccccc45)C32)cc1OC (stereo not drawn)	> 30000	> 30000	> 30000	> 30000	> 30000	> 30000	> 30000	–	–	–	–	–	–	–	–	–	–
C#CCN1c2ccccc2C(=O)N2CCc3c([nH]c4ccccc34)C21 (stereo not drawn)	1200	1220	1520	850	1500	640	210	–	–	–	–	–	–	–	–	–	–
COc1cc2c(c(OC)c1OC)-c1ccc(OC)c(=O)cc1[C@@H](NC(C)=O)CC2 [COLCHICINE]	–	–	–	–	230	17300	7990	Active	7.63	Active	Active	6.95	82.29	Active	5.1	5.3	–
C=C(CN1c2ccccc2C(=O)N2CCc3c([nH]c4ccccc34)C21)C(=O)OC (stereo not drawn)	> 30000	> 30000	> 30000	> 30000	> 30000	> 30000	19700	–	–	–	–	–	–	–	–	–	–
C=CCN1c2ccccc2C(=O)N2CCc3c([nH]c4ccccc34)C21 (stereo not drawn)	–	380	1050	380	1000	270	60	–	–	–	–	–	–	–	–	–	Active
Cc1ccc(CN2c3ccccc3C(=O)N3CCc4c([nH]c5ccccc45)C32)cc1 (stereo not drawn)	9740	> 30000	> 30000	12500	> 30000	6110	7060	–	–	–	–	–	–	–	–	–	–
CC(C)N1c2ccccc2C(=O)N2CCc3c([nH]c4ccccc34)C21 (stereo not drawn)	900	1170	2270	490	540	380	130	–	–	–	–	–	–	–	–	–	–
C[Si](C)(C)CN1c2ccccc2C(=O)N2CCc3c([nH]c4ccccc34)C21 (stereo not drawn)	4240	3280	> 3000	2210	7060	2470	1780	–	–	–	–	–	–	–	–	–	–
O=C1c2ccccc2N(CC2CC2)C2c3[nH]c4ccccc4c3CCN12 (stereo not drawn)	210	1840	1850	420	440	220	100	–	–	–	–	–	–	–	–	–	Active
CC(C)(C)CN1c2ccccc2C(=O)N2CCc3c([nH]c4ccccc34)C21 (stereo not drawn)	1680	1840	> 3000	1310	1950	1210	910	–	–	–	–	–	–	–	–	–	–
O=C1c2ccccc2N(CCC2OCCO2)C2c3[nH]c4ccccc4c3CCN12 (stereo not drawn)	> 30000	> 30000	> 30000	> 30000	> 30000	5630	15700	–	–	–	–	–	–	–	–	–	–
O=C1c2ccccc2N(CCBr)C2c3[nH]c4ccccc4c3CCN12 (stereo not drawn)	1340	970	2050	980	1340	1060	550	–	–	–	–	–	–	–	–	–	–
CCN1c2ccccc2C(=O)N2CCc3c([nH]c4ccccc34)C21 (stereo not drawn)	300	980	2150	410	1200	430	170	–	–	–	–	–	–	–	–	–	Active
CC(C)CN1c2ccccc2C(=O)N2CCc3c([nH]c4ccccc34)C21 (stereo not drawn)	1080	2200	1950	880	500	350	160	–	–	–	–	–	–	–	–	–	Active
COC(=O)CN1c2ccccc2C(=O)N2CCc3c([nH]c4ccccc34)C21 (stereo not drawn)	> 30000	> 30000	> 30000	23400	> 30000	6660	> 30000	–	–	–	–	–	–	–	–	–	–
CCCCN1c2ccccc2C(=O)N2CCc3c([nH]c4ccccc34)C21 (stereo not drawn)	500	1030	1700	450	1990	460	160	–	–	–	–	–	–	–	–	–	–

Reference: ChEMBL document CHEMBL5321222, “N(14)-substituted evodiamine derivatives as dual topoisomerase 1/tubulin-Inhibiting anti-gastrointestinal tumor agents” (Eur J Med Chem, 2023)
